Values joined by “and” are separate entries in the source; they are usually repeats but may differ in a detail not shown here. Equal values may be shown once.
Tests used:
[1] = Meglumine iothalamate clearance from one plasma sample by first standard function, dog; assay type: in vivo, female beagle dogs; details: healthy dog 1919 (two tests), first standard function (Fig. 18), per blood collection time (20-90 min)
Description: A first standard function [CL × T - Cp/D curve] was formed following the same procedures as in Example 1. The first clearance calculation program 34 was executed. In this execution, the clearances of the four dogs (two tests were conducted for dog Nos. 1919 and 1367 at an interval of two months) in Example 12 were calculated by the first standard function (Fig. 18) obtained in Example 12, using the data for the respective blood collection times (except for the values obtained 5 min after the administration). More specifically, the ratio values of the meglumine iothalamate concentrations (Cp) in the plasma samples corresponding to the respective blood collection times to the meglumine iothalamate dose (D) were calculated, and the products of the clearance (CL) and the blood collection times (T) were calculated from the first standard function using the ratio values. The products were divided by the blood collection times (T), respectively, thereby obtaining the clearances (CL).

[2] = Meglumine iothalamate clearance by AUC method, dog; assay type: in vivo, female beagle dogs; details: healthy dog 1919 (two tests at an interval of two months), 3% meglumine iothalamate solution 0.3 mℓ/kg i.v.
Description: A total of […] female beagle dogs (body weight: 8.5 to 14 kg) consisting of one healthy dog (dog No. 1919), three partially nephrectomized dogs (chronic renal failure model) (dog Nos. 1367, 1253, and 1104) were used.
A 3% inulin-containing iothalamate solution was administered once in the amount of 0.3 mℓ/kg to each beagle dog from its foreleg vein. The meglumine iothalamate in the 3% inulin-containing iothalamate solution was obtained by diluting a conray injection solution (60 W/V%) (meglumine iothalamate injection solution of the Japanese Pharmacopoeia, available from DAIICHI PHARMACEUTICAL CO., LTD.) with saline to adjust the concentration to 3%.
Blood collection operations were performed five times with intervals after the administration. The blood collection times were, e.g., 5 min, 20 min, 40 min, 60 min, and 90 min after the administration for the healthy dog, and, e.g., 5 min, 40 min, 80 min, 120 min, and 180 min after the administration for other dogs.
The concentration of meglumine iothalamate in the plasma was measured as follows. 400 µℓ of a 0.1N-HCl-methanol (1 : 9) solution mixture were added to 100 µℓ of a dog plasma sample, and the resultant solution was stirred well and subjected to centrifugal separation at 16,000 rpm for 10 min. The resultant supernatant was analyzed by liquid chromatography. […]

## CNC(=O)c1c(I)c(NC(C)=O)c(I)c(C(=O)O)c1I [Iothalamic Acid, N-methylglucamine-5-acetamido-2,4,6-triiodo-N-methylisophthalate]
[1]; female, beagle, dog, plasma, intravenous, 0.3 mℓ/kg, read-out: Method of Present Invention: Clearance (2)
  clearance: 52.1 mL/min
[1]; blood collected at 20 min
  Method of Present Invention: Clearance (2): 57.4 mL/min
[1]; blood collected at 40 min
  Method of Present Invention: Clearance (2): 53.0 mL/min
[1]; blood collected at 50 min
  Method of Present Invention: Clearance (2): 48.9 mL/min
[1]; blood collected at 60 min
  Method of Present Invention: Clearance (2): 52.5 mL/min
[1]; blood collected at 70 min
  Method of Present Invention: Clearance (2): 48.4 mL/min
[1]; blood collected at 90 min
  Method of Present Invention: Clearance (2): 42.0 mL/min and 43.9 mL/min
[2]; female, beagle, dog, plasma, iv, 0.3 mℓ/kg, read-out: Conventional Method: Clearance (1)
  clearance: 45.6 mL/min
[2]
  Conventional Method: Clearance (1): 49.1 mL/min
